Reference: patent publication US20040009933A1, “Fluorescent nitrogenous base and nucleosides incorporating same” (Glen Research Corporation, priority 2002, published 2004)
Entries after “also recorded” stand apart in the source; their conditions may differ. [pyrroloC] = pyrrolo-2'-deoxycytidine (fluorescent C analogue)

Legend:
[1] = tested on: otherwise duplex hybrid, mismatched base adenosine; settings: mismatched base is adenosine; cited from earlier work
[2] = Spectral properties of pyrrolo-dC (extinction coefficients, fluorescence quantum yield); type: physicochemical; settings: for QY (quantum yield): relative to quinine sulfate in O.5 M H2SO4
Excerpt: The spectral properties of pyrrolo-dC, coupled with its unique base-pairing ability, make this fluorescent analog extremely valuable in probing DNA structure. When the pyrrolo-dC is base-paired, its fluorescence can be reduced or quenched through what is most likely base stacking interactions (see Table I).

[3] = molecular target: T1, AmpiTaq DNA polymerase (Thermus aquaticus, UniProt P19821); test: PCR and sequencing with pyrrolo-dCTP replacing dCTP; type: biochemical; settings: dye-terminator cycle sequencing of PCR product
T1 construct: purchased Applied Biosystems
T1 sequence (P19821 whole entry): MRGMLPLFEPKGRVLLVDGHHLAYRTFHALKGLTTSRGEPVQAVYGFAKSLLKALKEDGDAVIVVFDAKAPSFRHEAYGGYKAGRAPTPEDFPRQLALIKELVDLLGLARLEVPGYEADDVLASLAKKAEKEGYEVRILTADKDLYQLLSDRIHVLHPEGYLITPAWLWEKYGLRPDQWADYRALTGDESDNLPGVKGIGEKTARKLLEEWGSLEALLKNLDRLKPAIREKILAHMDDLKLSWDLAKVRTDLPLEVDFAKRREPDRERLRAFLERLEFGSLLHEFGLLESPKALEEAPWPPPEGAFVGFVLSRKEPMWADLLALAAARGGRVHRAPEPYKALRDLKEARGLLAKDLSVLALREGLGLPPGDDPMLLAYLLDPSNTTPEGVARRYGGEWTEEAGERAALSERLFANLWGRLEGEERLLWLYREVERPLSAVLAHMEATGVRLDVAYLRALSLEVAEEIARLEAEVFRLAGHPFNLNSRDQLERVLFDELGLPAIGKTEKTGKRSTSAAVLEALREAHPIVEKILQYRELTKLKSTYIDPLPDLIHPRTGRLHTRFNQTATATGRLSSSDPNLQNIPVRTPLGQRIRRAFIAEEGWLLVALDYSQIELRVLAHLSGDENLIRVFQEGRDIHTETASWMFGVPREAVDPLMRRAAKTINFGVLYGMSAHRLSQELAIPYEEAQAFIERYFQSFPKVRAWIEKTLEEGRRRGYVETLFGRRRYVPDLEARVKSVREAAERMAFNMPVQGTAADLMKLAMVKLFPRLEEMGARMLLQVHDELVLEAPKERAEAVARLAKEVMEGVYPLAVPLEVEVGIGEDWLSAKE
Excerpt: The triphosphate of pyrrolo-dC (pyrrolo-dCTP) was synthesized and compared with dCTP for its ability to be recognized by polymerases and be incorporated as a dC into polymerase generated products. Nucleotide-triphosphate mixes containing either dCTP or pyrrolo-dCTP were used in amplification reactions similar to the ones above and the product analyzed by acrylamide gel.
The PCR and sequencing experiments in Example 15 were repeated to determine if polymerases incorporated pyrrolo-dCTP as efficiently as dCTP (FIGS. 7 & 8). Purified plasmid DNA with 500-600 bp inserts were amplified in a standard 25 μl PCR reaction. One of the primers was biotinylated to facilitate the post-reaction cleanup of the PCR product. AmpiTaq DNA polymerase (1.25 Units, Applied Biosystems) was used as enzyme with 200 μM final concentration of each dNTP. In the pyrrolo-dCTP samples the dCTP was replaced with 200 μM pyrrolo-dCTP. Following the PCR reaction (55° C. annealing for 20 sec, 72° C. extension for 45 sec, 30 cycles) an aliquot of the reaction was subjected to agarose gel electrophoresis to verify the size and quality of the product. […] An aliquot of the purified product, still attached to the magnetic beads, was sequenced in a standard fluorescent dye-terminator cycle sequencing reaction and analyzed on a Beckman CEQ2000XL DNA sequencer.

[4] = tested on: polymerases; test: Cycle sequencing of PCR fragments made with pyrrolo-dC substituted primer; type: biochemical; settings: C in sense strand product, G in antisense strand product
Excerpt: A series of tests was designed to determine if a pyrrolo-dC residue coded as dC for a dG. In this experiment a 100× diluted aliquot of the ˜500 nucleotide insert generated by the control T7 and Sp6 primers was further amplified using a biotinylated Sp6 primer and either a control 42 base M13-T7 primer or one with four pyrrolo-dC substitutions in the T7 sequence. The PCR product was captured on streptavidin beads, excess primers were removed by washing, and the suspension was divided into two portions. One reaction (the antisense strand) was sequenced using an M13 forward primer (using ABI dRhodamine chemistry); the other was sequenced (carried out using Beckman dye terminator chemistry) by using Sp6, after releasing the sense strand by heat denaturation of the immobilized PCR fragment.
Sequencing reactions (in duplicate) were carried out with PCR fragments to determine if pyrrolo-dC substitutes for dC. PCR fragments were generated by using, as template, a 100-fold dilution of the product of T7/bio-Sp6 reaction (similar to lane 5 above) and a primer pair of biotinylated Sp6 and the M13F-T7 (or its pyrrolo-dC-substituted homolog). The PCR fragment from this amplification was purified by streptavidin beads to remove excess primers and the suspension divided into two portions. […] Thus, under cycle sequencing conditions, the pyrrolo-dC residue is read as a dC.

[5] = molecular target: T7 RNA Polymerase (Escherichia phage T7, UniProt P00573); settings: transcription bubble in elongation complexes; cited from earlier work
T7 RNA Polymerase, sequence (P00573 whole entry): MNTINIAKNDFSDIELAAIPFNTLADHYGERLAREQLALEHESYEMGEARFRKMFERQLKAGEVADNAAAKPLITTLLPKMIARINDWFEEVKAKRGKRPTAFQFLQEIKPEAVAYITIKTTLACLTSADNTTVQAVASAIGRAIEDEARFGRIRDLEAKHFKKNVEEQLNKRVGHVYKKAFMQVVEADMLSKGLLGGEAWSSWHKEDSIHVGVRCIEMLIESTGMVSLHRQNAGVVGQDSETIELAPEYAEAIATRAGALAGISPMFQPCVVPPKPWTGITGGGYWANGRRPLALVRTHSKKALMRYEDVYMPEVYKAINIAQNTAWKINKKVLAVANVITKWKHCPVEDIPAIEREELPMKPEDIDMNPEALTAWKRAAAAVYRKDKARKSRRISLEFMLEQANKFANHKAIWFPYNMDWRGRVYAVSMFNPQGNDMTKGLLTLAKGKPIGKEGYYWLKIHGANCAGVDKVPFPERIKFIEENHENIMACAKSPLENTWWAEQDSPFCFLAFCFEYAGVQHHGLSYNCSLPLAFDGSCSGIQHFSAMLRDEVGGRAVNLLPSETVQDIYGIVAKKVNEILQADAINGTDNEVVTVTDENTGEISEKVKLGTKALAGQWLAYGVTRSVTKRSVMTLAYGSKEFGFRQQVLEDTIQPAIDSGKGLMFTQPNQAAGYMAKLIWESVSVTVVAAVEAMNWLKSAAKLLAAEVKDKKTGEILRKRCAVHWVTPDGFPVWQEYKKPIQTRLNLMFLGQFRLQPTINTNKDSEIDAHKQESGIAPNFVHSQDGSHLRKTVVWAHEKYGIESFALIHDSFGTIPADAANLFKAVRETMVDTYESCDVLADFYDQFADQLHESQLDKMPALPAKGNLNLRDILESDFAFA

[6] = tested on: complementary strands containing each of the four natural deoxyribonucleotide bases opposite pyrrolo-dC; test: Hybridization specificity: melting temperature (Tm) of 19mer oligonucleotide containing a single pyrrolo-dC; type: binding
Procedure: The hybridization specificity of pyrrolo-dC was evaluated by determining the melting temperature (Tm) of a 19mer oligonucleotide with the sequence 5′-GCC TAA CTT CXG GAG ATG T-3′ (SEQ ID NO.: 1), where X is Pyrrolo-dC which contains a single pyrrolo-dC. This oligonucleotide was annealed to complementary strands containing each of the four natural deoxyribonucleotide bases opposite it. Hybridization was best with a strand containing dG opposite pyrrolo-dC and decreased in the order dG>dT>dA>dC (melting temperature Tm=65, 56, 55 and 52° C. respectively). The effect of multiple incorporations was next evaluated by synthesizing a T7 universal primer where dC was replaced with zero to four pyrrolo-dC residues. All five oligonucleotides had the same Tm as that of the control (57° C.) when hybridized with an oligonucleotide complementary to the T7 primer regardless of the number of pyrrolo-dC/dC substitutions.

[7] = tested on: polymerases Taq, Vent, Pfu; test: PCR with different polymerases using T7 or T7-4 pyrrolo-dC primer; type: biochemical; settings: biotinylated Sp6 reverse primer, ~500 nucleotide insert, Vent lower efficiency for both primers
Excerpt: The control and experimental T7 primers were next compared in another experiment using limiting concentrations of each of the T7 primers (1.3, 0.4, 0.15 and 0.05 pmole per reaction) and excess Sp6 primer. […] Finally the control and T7 primer containing four pyrrolo-dC substitutions were compared in their ability to be recognized by a variety of polymerases, Taq from ABI, Vent from New England Biolabs and Pfu from Stratagene. In this case a biotinylated Sp6 primer was used as the reverse primer in the amplification reaction of a plasmid containing an approximately 500 nucleotide insert.
Experiments were carried out to examine the effect of substituted pyrrolo-dC primers on the activity of several polymerases. Three experiments were carried out to examine the ability of different polymerases (Taq, Vent, Pfu) to use the T7 or T7-4 pyrrolo-dC primer in PCR; the other primer in the pair was biotinylated Sp6. […] In FIG. 6, lane 1 is standards, lane 2 is T7-4 pyrrolo-dC primer with Taq (ABI), lane 3 is T7-4 pyrrolo-dC primer with Vent (NEB), lane 4 is T7-4 pyrrolo-dC primer with Pfu (Stratagene), lane 5 is T7 primer with Taq (ABI), lane 6 is T7 primer with Vent (NEB), lane 7 is T7 primer with Pfu (Stratagene), and lane 8 is standards.

[8] = tested on: plasmid 600-nucleotide insert; test: PCR assay: ability of pyrrolo-dC substituted T7 primers to amplify a plasmid insert; type: biochemical; settings: primer dilution 4, 1.3, 0.4, 0.15 and 0.05 pmol, FIG. 4
Procedure: A series of tests were performed to test the ability of the T7 primers synthesized above to function in biological assays. In the first series of tests each of the T7 primers was evaluated in a PCR assay for their ability to amplify a plasmid insert. In the first experiment either the control or one of the experimental T7 forward primers, with one to four pyrrolo-dC substitutions, and an Sp6 reverse primer were tested for their ability to amplify a plasmid 600-nucleotide insert using supramaximal primer concentrations and the PCR products analyzed on an acrylamide gel. The sequences of the T7 forward primers are as follows: 5′-TAA TAC GAX TCA CTA TAG G-3′ (SEQ ID NO.: 6); 5′-TAA TAC GAX TXA CTA TAG G-3′ (SEQ ID NO.: 7); 5′-TAA TAX GAX TXA CTA TAG G-3′ (SEQ ID NO.: 8); 5′-TAA TAX GAX TXA XTA TAG G-3′ (SEQ ID NO.: 9); (control) 5′-TAA TAC GAC TCA CTA TAG G-3′ (SEQ ID NO.: 10), where X=pyrrolo-dC. Analysis of the stained gel was consistent with no differences in either the mobility or intensity of the stained bands corresponding to the 600-nucleotide PCR product generated by the control or experimental T7 primers.
The control and experimental T7 primers were next compared in another experiment using limiting concentrations of each of the T7 primers (1.3, 0.4, 0.15 and 0.05 pmole per reaction) and excess Sp6 primer. […]

For `Cc1cc2cn([C@H]3C[C@H](O)[C@@H](CO)O3)c(=O)nc2[nH]1` [Pyrrolo-dC, 6-Methyl-3-(β-D-2-deoxyribofuranosyl)pyrrolo[2,3-d]pyrimidin-2-one], the “fluorescence when mismatched in an otherwise duplex hybrid” value [1] is listed as “higher than the single-stranded species”, the E260 [2] is listed as 4,000 LImol cm and the E345 [2] is listed as 3,700 L/mol cm. The “QY (quantum yield)” value ([2]; double-stranded) was 0.02, the “QY (quantum yield)” value ([2]; single-stranded) was 0.07 and the “sequence of PCR product generated with the triphosphate” value [3] was “specifically incorporated as a “dC” opposite a dG residue”. The “how the residue is read under cycle sequencing conditions” value [4] was ““read” as a dC; also recorded: read as a dC” and the “increase in fluorescence as the polymerase induces melting” value [5] was “two-fold”.
With “SEQ ID NO.: 1: 19mer oligonucleotide 5′-GCC TAA CTT CXG GAG ATG T-3′, where X is Pyrrolo-dC” the “melting temperature Tm” value ([6]; dA opposite pyrrolo-dC) was 55 °C, the “melting temperature Tm” value ([6]; dC opposite pyrrolo-dC) was 52 °C and the “melting temperature Tm” value ([6]; dG opposite pyrrolo-dC) was 65 °C. The “melting temperature Tm” value ([6]; dT opposite pyrrolo-dC) was 56 °C.
For “SEQ ID NO.:9: T7 forward primer 5′-TAA TAX GAX TXA XTA TAG G-3′, X=pyrrolo-dC; four substitutions (TAATACGACTCACTATAGG; DNA, [pyrroloC] at 6, 9, 11, 13, backbone not given here)”, the “ability to be used by polymerases in PCR versus unsubstituted T7 primer” value [7] was “equivalence” and the “primer amount at which product formation sharply decreases” value [8] was “around 0.15 pmol”.
